Measurements from patent US7985072B2, “Method and apparatus for tooth rejuvenation and hard tissue modification” (Rejuvedent LLC, priority 2005, dated 2011).

What was measured:
[1] = test system: maxillary right central incisor of a volunteer; assay: Example 2: at-home tooth whitening treatment; conditions: for Normalized optical coefficient of reflection: before treatment 1
[2] = Depth of the etched (porous) enamel layer with aqueous citric acid solution, parameters of equation (1)
Text: The inventors conducted a series of tests to determine the optimal pH, temperature and time for tooth rejuvenation, and for designing various devices for the tooth rejuvenation procedure. […] The enamel surface is not homogeneous, it contains inorganic components, such as hydroxyapatite, in the form of crystals oriented towards its surface. The enamel surface also contains organic components, such as proteins. When the organic and inorganic components are exposed to an aqueous acid solution, such exposure leads to the deconstruction and removal of these components to a certain depth into the enamel, forming a superficial porous layer. Stains, bacteria and the weak components of the enamel are removed from the porous layer, bleached or destroyed by the acid. Exposure time, pH and the concentration and temperature of the solution all affect the depth of tissue treatment and structure of surface after treatment. The removal and bleaching of the organic component is important because this component contains the most pigment. The organic component is however, tightly bound to the inorganic component, which occurs during tooth formation and is not affected by factors such as frequency of tooth brushing, or the type of toothpaste used. Because of this, bleaching removes both the organic and the bonded inorganic components.
(§1) The ability of an aqueous acidic solution to deconstruct and dissolve both organic and inorganic components depends on the period of time, pH, concentration, and temperature at which the process occurs. The color of the enamel after stain removal and bleaching is determined by how closely the structure after etching matches the natural structure and how well light is scattered from the surface of the tooth. Remineralization is however, a slow process, so caution in carrying out the procedure is recommended, and it is desirable to protect the new surface with a hard material. To achieve this, the present invention proposes the use of a high concentration of acid to minimize the time of treatment. For a high concentration of acid to be used safely within the oral cavity, two fundamental safety concerns need to be addressed: firstly toxicity and secondly soft tissue damage. To completely eliminate the toxicity problem, especially for home use, we propose the use of an edible acid which is non-toxic when ingested. The volume of acid for any application in the present invention is limited to several cubic centimeters. After dissolution in saliva the concentration of the acid ingested will drop, and the pH will increase, which is typical for foodstuffs. A typical pH for food acids is 2.5 or more. We have studied the effect of a low pH (<2.5) edible acid on intact enamel.
The temperature of the acid is another parameter to be optimized for enamel etching when using a high concentration of acid. An increase in temperature increases the depth of etching due to two factors: first, it increases the diffusion coefficient and, second, the rate of the chemical reaction between the acid and the enamel due to Arrenius law. […] These graphs can be described by the following formula: […]
Here, hw is the depth of the porous layer of enamel in μm after t min of etching as a function of t. Parameters cc, ct, and D can be the functions of both temperature T and pH.
The parameters α, cc, and D were found using the best square fit.

[3] = Comparison of edible acids as bleaching agents for removal of stains in enamel; conditions: low pH (<2.5), intact enamel
Protocol: as §1, with “enamel. […]” for “enamel.”

**Q.** What does the source list for O=C(O)CC(O)(CC(=O)O)C(=O)O [citric acid]?
**A.** Normalized optical coefficient of reflection ([1]; 1 months after treatment): 1.3 a.u.; Normalized optical coefficient of reflection ([1]; 4 months after treatment): 1.15 a.u.; Normalized optical coefficient of reflection ([1]; after 3 weeks of daily treatment (pH=1.5, room temperature, 2 minutes)): 1.34 a.u.; change in enamel gloss and reflection ([1]; after three-week treatment): No visible change in enamel gloss and reflection; improvement in tooth whitening (coefficient of reflection for white light) versus original color ([1]; after three-week treatment): 35%; dentinal hypersensitivity and change in gingival tissue ([1]; after treatment or during review appointments): No dentinal hypersensitivity; pain or discomfort throughout treatment ([1]; daily 2 minutes for three weeks): did not report any pain or discomfort; detrimental changes in soft tissues or enamel (post-treatment caries) ([1]; four month review visit): no detrimental changes; improvement compared with original coefficient of reflection ([1]; four months after treatment): approximately 15%; whitening effect exceeding the original ([1]; one month after treatment): 33%; etched depth of the tooth enamel ([2]; 50° C., pH=1.5, from the presented graphs (exposure time 10 min)): 40 μm; D, parameter of equation (1), thickness of porous (etched) layer of enamel ([2]; T = 50° C., pH 1): 94.035 μm^2/min; α1, parameter of equation (1), thickness of porous (etched) layer of enamel ([2]; T = 50° C., pH 1): 1.069 μm/min; α, parameter of equation (1), thickness of porous (etched) layer of enamel ([2]; T = 50° C., pH 1): 3.195 μm/min; D, parameter of equation (1), thickness of porous (etched) layer of enamel ([2]; T = 50° C., pH 2): 4.646 μm^2/min; α1, parameter of equation (1), thickness of porous (etched) layer of enamel ([2]; T = 50° C., pH 2): 0.559 μm/min; α, parameter of equation (1), thickness of porous (etched) layer of enamel ([2]; T = 50° C., pH 2): 1.022 μm/min; α1, parameter of equation (1), thickness of porous (etched) layer of enamel ([2]; T = 50° C., pH 2.5): −0.018 μm/min; α, parameter of equation (1), thickness of porous (etched) layer of enamel ([2]; T = 50° C., pH 2.5): 0.211 μm/min; D, parameter of equation (1), thickness of porous (etched) layer of enamel ([2]; pH = 1.5, 20 °C): 2.604 μm^2/min; α1, parameter of equation (1), thickness of porous (etched) layer of enamel ([2]; pH = 1.5, 20 °C): 0.158 μm/min; α, parameter of equation (1), thickness of porous (etched) layer of enamel ([2]; pH = 1.5, 20 °C): 0.524 μm/min; D, parameter of equation (1), thickness of porous (etched) layer of enamel ([2]; pH = 1.5, 37 °C): 23.124 μm^2/min; α1, parameter of equation (1), thickness of porous (etched) layer of enamel ([2]; pH = 1.5, 37 °C): 0.515 μm/min; α, parameter of equation (1), thickness of porous (etched) layer of enamel ([2]; pH = 1.5, 37 °C): 1.751 μm/min; D, parameter of equation (1), thickness of porous (etched) layer of enamel ([2]; pH = 1.5, 40 °C): 36.801 μm^2/min; α1, parameter of equation (1), thickness of porous (etched) layer of enamel ([2]; pH = 1.5, 40 °C): 0.469 μm/min; α, parameter of equation (1), thickness of porous (etched) layer of enamel ([2]; pH = 1.5, 40 °C): 1.921 μm/min; D, parameter of equation (1), thickness of porous (etched) layer of enamel ([2]; pH = 1.5, 45 °C): 74.738 μm^2/min; α1, parameter of equation (1), thickness of porous (etched) layer of enamel ([2]; pH = 1.5, 45 °C): 0.833 μm/min; α, parameter of equation (1), thickness of porous (etched) layer of enamel ([2]; pH = 1.5, 45 °C): 2.767 μm/min; D, parameter of equation (1), thickness of porous (etched) layer of enamel ([2]; pH = 1.5, 50 °C): 121.664 μm^2/min; α1, parameter of equation (1), thickness of porous (etched) layer of enamel ([2]; pH = 1.5, 50 °C): 1.31 μm/min; α, parameter of equation (1), thickness of porous (etched) layer of enamel ([2]; pH = 1.5, 50 °C): 3.755 μm/min; D, parameter of equation (1), thickness of porous (etched) layer of enamel ([2]; pH = 1.5, 60 °C): 122.528 μm^2/min; α1, parameter of equation (1), thickness of porous (etched) layer of enamel ([2]; pH = 1.5, 60 °C): 1.504 μm/min; α, parameter of equation (1), thickness of porous (etched) layer of enamel ([2]; pH = 1.5, 60 °C): 4.124 μm/min; effectiveness among edible acids (lactic, malic, tartaric, oxalic acid) [3]: most effective
